ChEMBL document CHEMBL3507680, “University of Dundee, Gates Library screen for HepG2 cell viability”

Test: Human HepG2 cell viability assay in 384 well format
Type: toxicity, cell-based
Set-up: dose 125 nL, time 70.5 hour; concentration not given beside the values
Settings: HepG2 cells, read-out: Inhibition

SMILES | cytotoxicity at 70.5 h [%]
N#Cc1c(F)cccc1N1CCC(C(=O)Nc2nccs2)CC1 | -17.6
CN(CC(=O)NCCCOc1ccc(F)cc1)c1ccc(C#N)cn1 | -19
Cc1ccc(OCC(C)NC(=O)CN(C)c2ccc(C#N)cn2)cc1 (stereo not given) | -3.51
CC(C)(C)NC(=O)NC(=O)CNc1c(F)cccc1N1CCCC1 | -5.38
O=C1CCC(C(=O)Nc2cnn(-c3ccccc3Cl)c2)N1 (stereo not given) | -9.74
CCNC(=O)N1CCc2ccc(NC(=O)NCCOCC)cc21 | 1.97
N#CC1(NC(=O)c2ccc(-c3nc(C4CC4)n[nH]3)cc2)CC1 | -12.9
CCNC(=O)N1CCc2ccc(NC(=O)NCc3ccsc3)cc21 | 9.35
CNC(=O)c1cccnc1N1CCC(OCc2ccccc2)CC1 | -19.8
CNC(=O)c1ccc2c(c1O)OC(C)(C)C2 | -4.08
CC1(CNC(=O)NCc2ccsc2)CCCS1 (stereo not given) | -8.93
CNC(=O)c1cccnc1N1CCC(Oc2ccc(F)cc2)CC1 | -14.2
CC(C)(C)C(O)CN1CCN(CC(=O)NC(C2CC2)C2CC2)CC1 (stereo not given) | 2.37
c1csc(CNc2ccccc2Cn2cncn2)c1 | 7.58
CN(C(=O)c1cccc(OCC(F)F)n1)c1ccc2c(c1)CCO2 | 21.4
N#CC1C(=O)Nc2c(cnn2C2CCCC2)C12CCCC2 (stereo not given) | -2.82
Cc1c(C(=O)NCCC(=O)N2CCCC2)oc2c(F)cccc12 | -6.53
CC(Cc1ccco1)NC(=O)CSc1nnc[nH]1 (stereo not given) | -9.49
CCN(Cc1cccc(F)c1)c1ccc2nnnn2n1 | -1.32
Cc1ccc(C)c2c(C)c(C(=O)NCCC(=O)N3CCOCC3)oc12 | -10.6
CCCN(CCc1cccc(F)c1)c1ccc2nnnn2n1 | -22.2
Cc1ccc(NC(=O)CCC2CC2)cc1N1CCOC1=O | -10.8
CCc1nncn1CCNC(=O)Nc1ccc2c(c1)CCCO2 | 1.85
CCc1nncn1CCNC(=O)Nc1ccc(OC)c(C)c1 | -7.19
CCCn1ccc2cc(NC(=O)NCCn3cnnc3CC)ccc21 | -9.53
CCN(C)CC1CCN(C(=O)Nc2ccc(-c3csnn3)cc2)C1 (stereo not given) | -5.78
CCc1nc2n(n1)CCCC2NC(=O)Nc1cc(OC)ccc1C (stereo not given) | 3.05

SMILES | cytotoxicity at 70.5 h [%]
O=S(=O)(CC1CCCCC1)NCc1ccnc(O)c1 | -7.43
O=C1NCCO[C@H]2CN(C(=O)Cc3csc4ccccc34)CC[C@@H]12 | -8.16
O=C(NCC1Cn2nnc(-c3ccsc3)c2CO1)N1CCCC1 (stereo not given) | -7.85
O=C(Nc1cccnc1)[C@H]1CN(Cc2cccs2)C[C@H]2OCC[C@@H]12 | -10.8
O=C1NCCO[C@H]2CN(C(=O)c3cccs3)CC[C@@H]12 | 20.1
O=C1NCCO[C@H]2CN(C(=O)Cc3ccco3)CC[C@@H]12 | -5.72
Cc1csc(CN2C[C@@H]3CN(CC4CCOCC4)CCO[C@@H]3C2)n1 | -6.62
Cc1csc(CN2C[C@@H]3CN(C)CCO[C@@H]3C2)n1 | -3.79
Cc1cnc(C(=O)N2C[C@H](N3CCOCC3)[C@@H]3OCCC[C@@H]32)cn1 | -13.1
Cc1ccc(C(=O)N2C[C@@H](N3CCN(C)CC3)[C@H]3OCCC[C@H]32)cn1 | -11.9
Cc1nnc([C@@]23CCO[C@@H]2CCN(Cc2cccc4ccccc24)C3)o1 | -6.43
CCS(=O)(=O)N1CCC2(CCN(C(=O)c3cccs3)CC2)CC1 | -4.52
Cc1nnc([C@@]23CCO[C@@H]2CCN(Cc2scnc2C)C3)o1 | -10.2
Cc1ncccc1NC(=O)c1nc2c(n1C)CCN(C(=O)C1CC1)C2 | -8.28
COCc1cnc2n1CCN(C(=O)c1cc3cc(Cl)ccc3o1)C2C (stereo not given) | 18.3
CS(=O)(=O)N1C[C@@H]2COC[C@]2(C(=O)NCCc2cccs2)C1 | -7.21
CCOC1COC2(CCN(S(=O)(=O)c3ccc(F)cc3)CC2)C1 (stereo not given) | -12.9
Cc1cnc(N2CCC3(C2)CN(S(=O)(=O)C2CC2)C3)nc1 | -8.82
CN(Cc1cccnc1)C[C@H]1OC[C@@H]2CCN(c3ncccn3)C[C@@H]21 | -0.858
Cc1noc(C)c1CN1CCn2c(COC(C)C)nnc2C1 | -10.8
COC[C@@]12CCO[C@@H]1CCN(C(=O)C1CCSCC1)C2 | -5.18
O=C([C@@H]1COC[C@H]2CN(C3CCCCC3)C[C@H]21)N1CCOCC1 | -9.47
O=C([C@H]1COC[C@H]2CN(C3CCCC3)C[C@H]21)N1CCOCC1 | -9.13
COC[C@@]12CCO[C@@H]1CCN(C(=O)C1CC(F)(F)C1)C2 | -11.5
COC[C@@]12CCO[C@@H]1CCN(C(=O)C1CCOCC1)C2 | -11.6
CCN(C(=O)c1ccc2nnc(C3CCN(C(C)=O)C3)n2c1)C(C)C (stereo not given) | -12.3
CCN(C(=O)c1ccc2nnc(C3CCN(S(C)(=O)=O)C3)n2c1)C(C)C (stereo not given) | -9.62

SMILES | cytotoxicity at 70.5 h [%]
CC(=O)N1CCC(c2nnc3ccc(C(=O)NCC(C)C)cn23)C1 (stereo not given) | -12.8
O=C(NCC1CCCCC1)N1C[C@H]2C[C@H](C(=O)N3CCOCC3)[C@@H](C1)O2 | 24.6
Cn1ccnc1C(=O)NC[C@@H]1OC[C@H]2CN(S(C)(=O)=O)CC[C@H]21 | -5.19
CC(C)NC(=O)[C@H]1C[C@@H]2CN(C(=O)NC(C)C)C[C@H]1O2 | -10.3
O=C(Cc1ccco1)N1C[C@H]2CCC[C@@]2(COCc2cccnc2)C1 | -10.4
O=C(Cc1ccco1)N1C[C@H]2CCC[C@@]2(COc2cccnc2)C1 | -5.14
O=C(Cc1ccco1)N1C[C@H]2CCC[C@@]2(COCC2CC2)C1 | -11.1
Cc1cccc(COC[C@@]23CCC[C@@H]2CN(C(=O)Cc2ccco2)C3)n1 | -8.53
Cc1nnc([C@H]2C[C@H]3CN(C(=O)Cc4ccc(F)cc4)CC[C@@H]3O2)o1 | -6.08
Cc1cc2c(N3CCC(N(C)Cc4cnn(C)c4)CC3)ncnc2s1 | -3.32
Cc1nccc(-c2ccccc2)c1C(=O)N1CC[C@](C)(O)C(C)(C)C1 | 1.9
O=C1CCCCCN1CCC(=O)N1CCCC(c2ccn[nH]2)C1 (stereo not given) | -9.01
Cc1ccc2c(c1)SCC(=O)N2CC(=O)N1CCCC1c1cc(C)on1 (stereo not given) | -1.98
Cn1cnc2c(-c3ccccc3)nc(C3CCNCC3)cc21 | 13.6
CC(C)N1C(=O)C2(CCN(C)CC2)c2cc(F)ccc21 | -7.44
CC(C)n1cnc2c(-c3cccnc3)nc(C3CCNCC3)cc21 | 12
O=C(NC1CC(F)(F)C1)[C@]12COC[C@H]1CN(Cc1ccccc1)C2 | -9.36
Cc1ncsc1CN1C[C@@H]2COC[C@]2(C(=O)NC2CC(F)(F)C2)C1 | -4.72
O=C(O)c1c(-c2cncnc2)ncc2c1CCN(CC1CCOC1)C2 (stereo not given) | -4.73
Cn1ccnc1C(=O)N1CCC2(CCN2Cc2ccc(F)cc2)C1 (stereo not given) | -3.38
CNC(=O)c1cc2c(nc1N(C)C)CCN(c1ncccn1)CC2 | -12
Cc1cc(C(=O)N2CCC3(CC2)C(=O)N(C)CCN3CC(C)C)c(C)o1 | -10.1
CCOC[C@]12COC[C@H]1CN(Cc1ccc3c(c1)OCO3)C2 | -6.35
CN1CCN(S(=O)(=O)c2cccc(F)c2)Cc2cccnc21 | -2.06
COCC(=O)NC[C@]12COC[C@H]1CN(Cc1ccc3c(c1)OCO3)C2 | -0.957
CS(=O)(=O)NC[C@]12COC[C@H]1CN(Cc1ccc3c(c1)OCO3)C2 | 5.12
COC[C@]12COC[C@H]1CN(Cc1ccc3c(c1)OCO3)C2 | -6.87

SMILES | cytotoxicity at 70.5 h [%]
CCN1CC2(CCOCC2)c2cc(NS(=O)(=O)CC)ccc21 | -2.27
CCOC1CC2(CCN(C(=O)Cc3ccccn3)CC2)C1 | 18.1
Cc1nc(CO[C@H]2CN(C(=O)c3cnoc3C)[C@@H]3COC[C@H]23)cs1 | -3.09
c1ccc(NC[C@@H]2CCC[C@@H]3CN(Cc4cc[nH]n4)C[C@@H]32)nc1 | -12.4
CN(C)C1COC2(CCN(S(=O)(=O)c3ccc(F)cc3)CC2)C1 (stereo not given) | -13.4
c1ccc(NC[C@@H]2CCC[C@@H]3CN(Cc4nccs4)C[C@@H]32)nc1 | -0.385
Cc1nnn2c1COCC(CNCc1nccs1)C2 (stereo not given) | -10.3
O=C(NCCc1cccs1)[C@]12COC[C@H]1CN(C1CCOCC1)C2 | -6.34
Cn1cncc1C(=O)N1C[C@@H]2CCN(c3cnccn3)C[C@@H]2C1 | -11.9
Cn1ccnc1C(=O)N1C[C@@H]2CCN(c3cnccn3)C[C@@H]2C1 | -7.28
CC(C)CN1CCc2[nH]nc(C(=O)N3CCCC3)c2C1 | 28.7
Cc1ccsc1C(=O)N1CCc2ncc(CN3CCCC3)n2CC1 | -4.02
O=C1COC2(COCCN(c3ccccn3)C2)CN1c1cccc(F)c1 (stereo not given) | -9.76
CN1C(=O)CC(c2ccncc2)C12CCN(c1ncccn1)CC2 (stereo not given) | -0.583
CN1CC[C@@H]2[C@@H](CO[C@H]2CNC(=O)c2nccn2C)C1 | -4.99
COc1ccccc1CN1CC[C@]2(C[C@@H](OCC(=O)N(C)C)CO2)C1 | -3.75
CC(=O)c1ccc(NC(=O)c2ccc3c(c2)C2(CCCCC2)CN3)cc1 | -9.32
O=C(NC1CC(F)(F)C1)[C@]12COC[C@H]1CN(Cc1cccnc1)C2 | -10.6
COc1ncccc1CNC1CCc2c(ccc(=O)n2C)C1 (stereo not given) | -1.32
O=C(O)c1c(-c2ccncc2)ncc2c1CCN(CC1CCOC1)C2 (stereo not given) | -4.36
Cc1cccc(CN2CCC3(CCCN(Cc4cnn(C)c4)C3)C2)n1 (stereo not given) | -14
COc1ncccc1CNC1CCc2c(ccc(=O)n2CC2CC2)C1 (stereo not given) | -8.76
c1ccc(CN2CCCC3(CCN(CC4CCCO4)CC3)C2)nc1 (stereo not given) | -9.93
Cc1ccc(CN2CC[C@H]3CO[C@H](CN4CCCC4)[C@H]3C2)o1 | -8.76
